“Also recorded” adds a separate entry of the source.
Columns and labels:
[1] = system: STING activation (IFNβ release) in pPMs; experiment: IFNβ release ELISA, primary peritoneal macrophages (pPMs); type: cell-based, mouse; settings: 16 hours
Protocol: Mouse pPMs were isolated from C57BL/6J mice as previously described (69). In brief, eight-week-old female or male C57BL/6J mice were injected with 3.0% thioglycollate medium (2 mL/mouse) into the peritoneum. Three days after injection, mice were sacrificed and injected with 3 mL of 0.05% EDTA-PBS into the peritoneum to harvest peritoneal macrophages. Collected cells were centrifuged at 1000 rpm for 5 min at 4° C., and the cell pellet was washed with PBS and centrifuged again. The cell pellet was then suspended in Dulbecco's Modified Eagle Medium supplemented with 10% FBS and 1× Penicillin-Streptomycin and cultured in a culture dish.
(§1) Macrophages or monocytes were treated with 3′3′-cGAMP (10 μg/ml, Invitrogen) for 16 hours in the absence or presence of one compound (10 μM) from the Target-selective Inhibitory Library (#L3500, Selleck Chemicals). Commercially available enzyme-linked immunosorbent assay (ELISA) kits were used to measure the concentrations of mouse IFNβ (Thermo Fisher Scientific) or human IFNβ (Thermo Fisher Scientific) in culture medium according to the manufacturer's instructions.

[2] = target: T1, interaction between ALK and EGFR (Homo sapiens, UniProt P00533+Q9UM73); experiment: IP analysis of the interaction between ALK and EGFR, THP1; type: cell-based; settings: 3′3′-cGAMP or c-di-AMP 10 μg/ml, 16 hours, 10 μM
T1 construct: endogenous in cells; host or cells: THP1 cells
Protocol: For immunoprecipitation, cells were lysed at 4° C. in ice-cold modified radioimmunoprecipitation lysis buffer (#9806, Cell Signaling Technology) and cell lysates were cleared by centrifugation (12,000 g, 10 min). Concentrations of proteins in the supernatant were determined by bicinchoninic acid assay. Prior to immunoprecipitation, samples containing equal amounts of proteins were pre-cleared with Protein A/G agarose/sepharose beads (#20423, Thermo Fisher Scientific Inc.) (4° C., 3 h) and subsequently incubated with various irrelevant IgG or anti-ALK (#ab190934, Abcam) or anti-EGFR antibodies (#2232S, Cell Signaling Technology) in the presence of Protein A/G agarose/sepharose beads overnight at 4° C. with gentle shaking. Following incubation, agarose/sepharose beads were washed extensively with PBS and proteins were eluted by boiling in 2× sodium dodecyl sulfate (SDS) sample buffer before SDS-PAGE electrophoresis.

[3] = system: STING activation (IFNβ release) in THP1 cells; experiment: IFNβ release ELISA, THP1 cells; type: cell-based, human; settings: STING ligands 10 μg/ml, inhibitor 10 μM, 16 hours
Protocol: as §1

IFNβ mRNA in pPMs = experiment: IFNβ mRNA Q-PCR, pPMs; type: cell-based, mouse; settings: STING ligands 10 μg/ml, inhibitor 10 μM, 16 hours
Protocol: Total RNA was extracted using QIAGEN RNeasy Plus Kit according to the manufacturer's instructions. First-strand cDNA was synthesized from 1 μg of RNA using the iScript cDNA Synthesis kit (#1708890, Bio-Rad). Briefly, 20 μl reactions were prepared by combining 4 μl iScript Select reaction mix, 2 μl gene-specific enhancer solution, 1 μl reverse transcriptase, 1 μl gene-specific assay pool (20×, 2 μM), and 12 μl RNA diluted in RNase-free water. Quantitative real-time PCR was carried out using synthesized cDNA, primers, and SsoFast EvaGreen Supermix (#172-5204, Bio-Rad). The expression of target genes was calculated using the ddCt method relative to the expression of a house-keeping gene, β-actin. Data shown are the relative quantity (RQ), with RQ of the control cells set to one.

[4] = system: LPS-induced endotoxemia in C57BL/6J mice; experiment: Endotoxemia model (LPS); type: in vivo, mouse
Protocol: LPS (Escherichia coli […], 10 mg/kg, #L4391, Sigma) was dissolved in PBS. Male or female C57BL/6J mice (eight- to 10-weeks old, 22 to 26 g weight) received a single oral dose of LDK378 (20 mg/kg) or vehicle, then an infusion of LPS (10 mg/kg, intraperitoneally) 60 minutes later. Mice were re-treated with LDK378 or vehicle six, 12, and 24 hours after LPS infusion.
Biochemical measurements of tissue enzymes (CK, AMYL, BUN, and ALT) in serum were performed using the IDEXX Catalyst Dx Chemistry Analyzer according to the manufacturer's protocol.
Tissues were embedded in optimum cutting temperature cryomedium (Sakura Finetek, Zoeterwoude, the Netherlands) and cut into 4 μm sections. The deparaffinized sections were then stained using the standard H&E method. The stained slides were observed using an EVOS FL Auto Cell Imaging System (Invitrogen), five fields per section and three sections per sample.

[5] = system: STING activation (IFNβ release) in J774A.1 cells; experiment: IFNβ release ELISA, J774A.1 cells; type: cell-based, mouse; settings: STING ligands 10 μg/ml, inhibitor 10 μM, 16 hours
Protocol: as §1

pPMs = experiment: Cell viability assay (CCK-8), pPMs; type: cell-based, mouse; settings: 3′3′-cGAMP 10 μg/ml, ALK inhibitor 10 μM, 16 hours
Protocol: (§2) Cells were seeded into 96-well plates and incubated with the indicated treatments. Subsequently, 100 μl fresh medium was added to cells containing 10 μl Cell Counting Kit-8 (CCK-8) solutions (Dojindo Laboratories) and incubated for 1 h (37° C., 5% CO2). Absorbance at 450 nm was measured using a microplate reader (Tecan).

RAW264.7 cells = experiment: Cell viability assay (CCK-8), RAW264.7; type: cell-based, mouse; settings: 3′3′-cGAMP 10 μg/ml, ALK inhibitor 10 μM, 16 hours
Protocol: as §2

[6] = LPS 10 mg/kg, LDK378 20 mg/kg, 24 hours

T1 sequence (Q9UM73 19-1620): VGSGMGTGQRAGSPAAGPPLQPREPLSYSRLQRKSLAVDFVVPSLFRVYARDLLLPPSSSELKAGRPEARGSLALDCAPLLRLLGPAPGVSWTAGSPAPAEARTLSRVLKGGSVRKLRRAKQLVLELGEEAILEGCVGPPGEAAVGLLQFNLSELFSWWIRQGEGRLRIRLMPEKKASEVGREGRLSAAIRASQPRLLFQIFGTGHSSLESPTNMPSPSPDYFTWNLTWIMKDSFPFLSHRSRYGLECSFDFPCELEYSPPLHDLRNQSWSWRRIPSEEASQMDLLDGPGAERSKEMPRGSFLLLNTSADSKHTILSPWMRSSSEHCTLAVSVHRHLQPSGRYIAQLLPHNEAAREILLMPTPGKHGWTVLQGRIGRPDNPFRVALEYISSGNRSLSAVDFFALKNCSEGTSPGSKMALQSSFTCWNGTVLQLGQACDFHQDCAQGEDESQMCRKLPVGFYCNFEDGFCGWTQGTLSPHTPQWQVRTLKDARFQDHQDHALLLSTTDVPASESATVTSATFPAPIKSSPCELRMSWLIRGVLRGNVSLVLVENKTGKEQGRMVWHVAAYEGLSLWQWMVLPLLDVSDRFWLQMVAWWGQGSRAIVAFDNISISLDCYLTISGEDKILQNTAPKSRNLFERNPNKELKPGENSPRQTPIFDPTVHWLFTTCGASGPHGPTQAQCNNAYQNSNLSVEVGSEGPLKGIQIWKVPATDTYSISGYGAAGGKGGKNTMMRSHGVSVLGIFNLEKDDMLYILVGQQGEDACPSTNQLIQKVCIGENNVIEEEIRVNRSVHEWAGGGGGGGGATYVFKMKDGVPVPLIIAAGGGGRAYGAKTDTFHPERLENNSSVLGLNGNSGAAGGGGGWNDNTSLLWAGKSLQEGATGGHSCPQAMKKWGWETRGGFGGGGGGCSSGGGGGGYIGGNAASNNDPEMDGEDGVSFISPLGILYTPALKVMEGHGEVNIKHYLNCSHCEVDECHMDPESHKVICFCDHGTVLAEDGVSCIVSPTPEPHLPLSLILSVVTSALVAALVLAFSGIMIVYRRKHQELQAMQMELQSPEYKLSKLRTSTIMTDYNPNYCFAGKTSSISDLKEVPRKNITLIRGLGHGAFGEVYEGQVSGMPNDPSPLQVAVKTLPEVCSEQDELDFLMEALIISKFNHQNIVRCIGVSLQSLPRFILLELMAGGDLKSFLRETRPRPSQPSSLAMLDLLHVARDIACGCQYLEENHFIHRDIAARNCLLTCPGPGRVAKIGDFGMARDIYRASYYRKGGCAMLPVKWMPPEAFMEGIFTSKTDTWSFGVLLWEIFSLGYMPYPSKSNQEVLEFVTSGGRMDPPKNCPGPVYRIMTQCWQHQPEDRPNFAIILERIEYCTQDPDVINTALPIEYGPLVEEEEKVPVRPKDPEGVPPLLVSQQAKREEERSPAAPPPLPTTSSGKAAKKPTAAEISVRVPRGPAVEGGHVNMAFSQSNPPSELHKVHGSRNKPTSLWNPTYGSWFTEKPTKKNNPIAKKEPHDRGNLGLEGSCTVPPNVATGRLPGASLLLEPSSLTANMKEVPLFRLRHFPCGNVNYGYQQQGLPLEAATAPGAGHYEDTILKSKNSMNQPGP
T1 sequence (P00533 25-1210): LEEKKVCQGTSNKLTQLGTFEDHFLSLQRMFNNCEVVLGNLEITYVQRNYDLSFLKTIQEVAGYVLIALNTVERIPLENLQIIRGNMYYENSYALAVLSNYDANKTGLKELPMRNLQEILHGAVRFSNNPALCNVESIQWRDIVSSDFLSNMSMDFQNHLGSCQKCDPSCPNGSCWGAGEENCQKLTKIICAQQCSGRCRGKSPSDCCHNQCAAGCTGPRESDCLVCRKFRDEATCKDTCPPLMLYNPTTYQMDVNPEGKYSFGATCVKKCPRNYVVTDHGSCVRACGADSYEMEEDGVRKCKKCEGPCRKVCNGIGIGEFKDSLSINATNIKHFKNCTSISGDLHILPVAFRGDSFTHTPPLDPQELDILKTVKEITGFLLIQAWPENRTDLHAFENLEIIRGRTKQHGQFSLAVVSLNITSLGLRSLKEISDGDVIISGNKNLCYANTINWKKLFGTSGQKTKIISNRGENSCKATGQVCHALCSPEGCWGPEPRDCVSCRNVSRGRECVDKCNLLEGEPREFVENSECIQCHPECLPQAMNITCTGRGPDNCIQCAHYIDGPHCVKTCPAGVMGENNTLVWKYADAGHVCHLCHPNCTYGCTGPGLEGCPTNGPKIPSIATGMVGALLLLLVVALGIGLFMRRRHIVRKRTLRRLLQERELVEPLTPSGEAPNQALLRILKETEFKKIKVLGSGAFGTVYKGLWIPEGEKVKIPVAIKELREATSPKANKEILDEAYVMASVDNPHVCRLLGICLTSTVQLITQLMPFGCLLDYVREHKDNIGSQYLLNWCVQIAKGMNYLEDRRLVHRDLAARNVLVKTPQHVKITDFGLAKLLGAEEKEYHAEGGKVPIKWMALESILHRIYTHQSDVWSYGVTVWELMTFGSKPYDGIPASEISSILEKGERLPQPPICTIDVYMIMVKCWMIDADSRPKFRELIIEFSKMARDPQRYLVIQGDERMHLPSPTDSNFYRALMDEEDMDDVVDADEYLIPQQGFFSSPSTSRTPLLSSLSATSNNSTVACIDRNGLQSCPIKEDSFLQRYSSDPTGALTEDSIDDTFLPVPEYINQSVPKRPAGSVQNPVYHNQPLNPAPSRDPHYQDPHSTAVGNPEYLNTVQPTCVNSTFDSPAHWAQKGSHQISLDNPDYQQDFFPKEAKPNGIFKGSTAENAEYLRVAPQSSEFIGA

## Cc1cc(Nc2ncc(Cl)c(Nc3ccccc3S(=O)(=O)C(C)C)n2)c(OC(C)C)cc1C1CCNCC1 [LDK378, 5-chloro-N^2-(2-isopropoxy-5-methyl-4-(piperidin-4-yl)phenyl)-N^4-[2-(propane-2-sulfonyl)-phenyl]-pyrimidine-2,4-diamine]
[1]; mouse pPMs, 3′3′-cGAMP 10 μg/ml, compound 10 μM
  3′3′-cGAMP-induced IFNβ release: confirmed their inhibitory properties
[1]; pPMs, STING ligands 10 μg/ml, inhibitor 10 μM
  IFNβ release induced by STING ligands: inhibited
[2]
  interaction between ALK and EGFR: reduced
[3]
  IFNβ release induced by STING ligands: inhibited
IFNβ mRNA in pPMs
  STING ligand-induced IFNβ mRNA expression: attenuation
[4]; LPS 10 mg/kg i.p., LDK378 20 mg/kg
  endotoxemic lethality (LPS-induced animal death): promoted similar protection; also recorded: conferred significant protection; also recorded: prevented
[4]; LPS 10 mg/kg, LDK378 20 mg/kg, 12-48 hours
  organ dysfunction (serum enzyme activity): promoted similar protection
[4]; [6]
  endotoxemia-induced tissue injury (H&E): promoted similar protection; also recorded: prevented
  proinflammatory cytokine expression (mRNA): promoted similar protection
  proinflammatory cytokine release (serum antibody array): promoted similar protection
[4]; LPS 10 mg/kg, serum, 24 hours
  top five downregulated circulating immune chemical mediators compared with control group: EGF, CD14, CXCL1, endoglin, and CCL22
[5]
  IFNβ release induced by STING ligands: inhibited
pPMs
  cell viability: did not affect cell viability
RAW264.7 cells
  cell viability: did not affect cell viability
